Experimental data reported in publication PMC8355692, “Antimelanoma activities of chimeric thiazole–androstenone derivatives” (Royal Society Open Science, 2021).

What was measured:
HFF-1 cell line = assay: Toxicity for normal human foreskin fibroblast cell line; format: cell-based; conditions: normal human foreskin fibroblast HFF-1
Source text: To assess the potential use of lead compounds as anti-melanoma agents, we tested their toxicity for the normal human foreskin fibroblast (HFF-1) cell line taking into consideration that MM is usually surrounded by the cells of this kind. The effects of some of the potent compounds on this cell line were very encouraging (table 4).

heme oxygenase-1 (HO1) = assay: HO1 immunocytochemistry combined with TUNEL (oxidative injury); format: cell-based; conditions: melanoma cells, 5 or 10 µM, 24 h
Source text: (§1) The elevation was dose-dependent.
(§2) Figure 4. […] (c) Representative images. […] Mean ± s.e.m., n = 4 per group.
(§3) Figure 5. […] (a) Representative images of TUNEL colocalized or not colocalized with each of the three protein markers used in this study. […] Mean ± s.e.m., n = 4 per group.
(§4) Thus, to determine the mechanism of action of our compounds on melanoma cells in vitro, we applied the fluorescent TUNEL assay combined with quantitative ICC for three markers: HO1 for oxidative cell injury, CAD for caspase-mediated apoptosis and EndoG for caspase-independent apoptosis. […] However, none of the compounds or dacarbazine induced apoptotic endonucleases. This is not surprising because apoptotic endonucleases are commonly present in the cell in sufficient amounts to be able to destroy DNA upon cell death without induction (which most likely would not be possible in a dead cell).

melanoma cells = assay: TUNEL staining for DNA fragmentation and irreversible cell death; conditions: 5 or 10 µM, 24 h
Source text: Apoptosis is usually associated with profound DNA fragmentation that makes the cell death irreversible. DNA fragmentation could be due to the increasing of nuclear DNA access to apoptotic endonucleases and the induction of these enzymes. This DNA fragmentation is best measured by using the terminal deoxynucleotidyl transferase dUTP nick-end labelling (TUNEL) assay. […] Immunostaining for major marker of oxidative injury, heme oxygenase-1 (HO1) was done to determine whether the test compounds induce oxidative injury. […] Activation of endonucleases and their translocation to the nucleus is actually the last step when cell death becomes irreversible. It is often preceded by an oxidative cell injury that activates or aggravates the cell death mechanism. To measure whether our compounds induce oxidative injury, we chose to measure HO1 which is a well-established mechanistic marker of oxidative injury. Because HO1 is not a nuclear marker and it is not translocated to the nucleus and contact DNA during cell death, instead of colocalization by pixels, we counted the percentage of TUNEL-positive (dead) cells which are also HO1-positive (figure 5a). […] We next examined whether caspase-activated DNase (CAD), a known mechanistic marker of caspase-mediated apoptosis, is colocalized with TUNEL during cell death induced by dacarbazine or our test compounds (3, 4 and 5).
Figure 4. […]

[1] = test system: caspase-activated DNase (CAD); assay: CAD immunocytochemistry combined with TUNEL (caspase-mediated apoptosis); format: cell-based; conditions: melanoma cells, 5 or 10 µM, 24 h
Source text: as §1, §2, §3, §4

SK-MEL-28 cell line = assay: Annexin V flow cytometry apoptosis assay; format: cell-based; conditions: SK-MEL-28, 200 µM
Procedure: After determining the selective toxicity of potent molecules, we determined their mode of action against the melanoma cell line. Apoptosis or programmed cell death is a physiological process to remove unwanted or damaged mammalian cells. We detected apoptosis mode of cell death by our potent compounds using flow cytometry-based Annexin V assay. Compound 3 caused 23% apoptosis at 6 µM and 54% apoptosis at 12 µM (figure 3). 3-Fluorophenyl derivative (5) was a very potent apoptosis-inducing agent that caused 100% cell death at 12 µM concentration. Dacarbazine, the positive control, caused 22% apoptotic cell death at 200 µM concentration.
Figure 3. Apoptosis measurements using Annexin V flow cytometry assay of compounds 3 and 5 against SK-MEL-28 cell line at 6 and 12 µM concentrations. DMSO and dacarbazine (Daca) are negative and positive controls, respectively. Mean ± s.e.m., n = 3 per group.

endonuclease G (EndoG) = assay: EndoG immunocytochemistry combined with TUNEL (caspase-independent apoptosis); format: cell-based; conditions: melanoma cells, 24 h
Source text: as §1, §2, §3, §4

melanoma panel = assay: NCI DTP test, statements for the whole melanoma panel; format: cell-based
Procedure: (§5) In our effort to develop new methodologies to synthesize bioactive compounds [11–14], we have synthesized a number of thiazole and thiazolo-androstenone derivatives. We submitted 50 of the synthesized thiazole–androstenone derivatives to the National Cancer Institute (NCI) Development Therapeutics Program (DTP) to test against 60 cancer cell lines (https://dtp.cancer.gov/). These compounds were tested for cytotoxicity at a single dose of 10 µM. […] Eight of these chimeric compounds (figure 2) were selected for further testing at five different concentrations to determine 50% growth inhibition (GI50), total growth inhibition (TGI) and 50% lethal concentration (LC50) values. […] Overall, amino-thiazole derivatives (table 1, 1–7) were more toxic to melanoma cell lines than phenyl thiazole derivatives (8). Fluoro and oxy (hydroxy and methoxy) derivatives were the potent growth inhibitors of the tested cancer cell lines. LOX IMVI cell line was the most susceptible among all the melanoma cell lines used against the tested compounds (table 1). […] Phenyl ethyl derivative (1) inhibited the growth of all the cell lines except SK-MEL-2. […] 2,4-Dimethyl substituted derivative (7) is a potent growth inhibitor of all the tested cell lines of the melanoma panel.

M14 = assay: NCI DTP 60 cell line five-concentration test, melanoma panel; format: cell-based; conditions: for GI50 / CC50: Homo sapiens; for GI50: M14, M14 melanoma cell line; for CC50: M14, read-out: LC50 (50% lethal concentration); for TGI (total growth inhibition): M14 melanoma cell line
Procedure: as §5

MDA-MB-435 = assay: as above; format: cell-based; conditions: for GI50 / CC50: Homo sapiens; for GI50 / TGI (total growth inhibition): MDA-MB-435 melanoma cell line; for CC50: MDA-MB-435, read-out: LC50 (50% lethal concentration)
Procedure: as §5

UACC-62 = assay: as above; format: cell-based; conditions: for GI50 / LC50 (50% lethal concentration): Homo sapiens; for GI50: UACC-62, UACC-62 melanoma cell line; for LC50 (50% lethal concentration): UACC-62, read-out: LC50 (50% lethal concentration); for TGI (total growth inhibition): UACC-62 melanoma cell line
Procedure: as §5

MALME-3M = assay: as above; format: cell-based; conditions: for GI50 / CC50: Homo sapiens; for GI50 / TGI (total growth inhibition): MALME-3M melanoma cell line; for CC50: Malme-3M, read-out: LC50 (50% lethal concentration)
Procedure: as §5

SK-MEL-28 = assay: as above; format: cell-based; conditions: for GI50 / CC50: Homo sapiens; for GI50: SK-MEL-28, SK-MEL-28 melanoma cell line; for CC50: SK-MEL-28, read-out: LC50 (50% lethal concentration); for TGI (total growth inhibition): SK-MEL-28 melanoma cell line
Procedure: as §5

LOX IMVI = assay: as above; format: cell-based; conditions: for GI50 / LC50 (50% lethal concentration): Homo sapiens; for GI50 / TGI (total growth inhibition): LOX IMVI melanoma cell line; for LC50 (50% lethal concentration): LOX IMVI, read-out: LC50 (50% lethal concentration)
Procedure: as §5

SK-MEL-2 = assay: as above; format: cell-based; conditions: for GI50 / LC50 (50% lethal concentration): Homo sapiens; for GI50 / TGI (total growth inhibition): SK-MEL-2 melanoma cell line; for LC50 (50% lethal concentration): SK-MEL-2, read-out: LC50 (50% lethal concentration)
Procedure: as §5

SK-MEL-5 = assay: as above; format: cell-based; conditions: for GI50 / CC50: Homo sapiens; for GI50 / TGI (total growth inhibition): SK-MEL-5 melanoma cell line; for CC50: SK-MEL-5, read-out: LC50 (50% lethal concentration)
Procedure: as §5

UACC-257 = assay: as above; format: cell-based; conditions: for GI50 / CC50: Homo sapiens; for GI50 / TGI (total growth inhibition): UACC-257 melanoma cell line; for CC50: UACC-257, read-out: LC50 (50% lethal concentration)
Procedure: as §5

[2] = Solubility in the growth media; format: physicochemical; conditions: growth media of the HFF-1 test

Row | Compound | GI50 (M14) | GI50 (MDA-MB-435) | GI50 (UACC-62) | GI50 (MALME-3M) | GI50 (SK-MEL-28) | GI50 (LOX IMVI) | GI50 (SK-MEL-2) | GI50 (SK-MEL-5) | GI50 (UACC-257) | CC50 (M14) | TGI (total growth inhibition) (M14) | CC50 (MDA-MB-435) | TGI (total growth inhibition) (MDA-MB-435) | LC50 (50% lethal concentration) (UACC-62) | TGI (total growth inhibition) (UACC-62) | CC50 (MALME-3M) | TGI (total growth inhibition) (MALME-3M) | CC50 (SK-MEL-28) | TGI (total growth inhibition) (SK-MEL-28) | LC50 (50% lethal concentration) (LOX IMVI) | also measured
1 | CN(C)/N=N/c1[nH]cnc1C(N)=O [dacarbazine, reference compound] | – | – | – | – | – | – | – | – | – | – | – | – | – | – | – | – | – | – | – | – | toxicity against HFF1 cells (in words) (HFF-1 cell line): did not show any notable toxicity; IC50 (HFF-1 cell line; read-out: IC50 against HFF1 cell line): > 100 µM; HO1 staining in TUNEL-positive cells (oxidative injury) (heme oxygenase-1 (HO1)): without induction of HO1; cytotoxicity by TUNEL staining (TUNEL-positivity) (melanoma cells): negligent; CAD mean intensity [1]: No significant induction; colocalization of CAD with TUNEL (caspase-mediated apoptosis) [1]: did not induce any association of CAD with TUNEL; apoptotic cell death (SK-MEL-28 cell line): 22%; EndoG overlap with TUNEL staining (caspase-independent apoptosis) (endonuclease G (EndoG); 5 µM): did not show any effect; EndoG overlap with TUNEL staining (caspase-independent apoptosis) (endonuclease G (EndoG); 10 µM): significant increase; EndoG mean intensity (endonuclease G (EndoG); 5 or 10 µM): No significant induction
2 | C[C@]12CCc3nc(Nc4ccc(F)cc4F)sc3C1=CC[C@@H]1[C@@H]2CC[C@]2(C)C(=O)CC[C@@H]12 [Compound 6] | > 100 µM | > 100 µM | > 100 µM | > 100 µM | > 100 µM | 1.71 µM | > 100 µM | 1.88 µM | > 100 µM | – | – | – | – | – | – | – | – | – | – | – | TGI values against the cell lines of the melanoma panel (melanoma panel): did not show any useful TGI values
3 | C[C@]12CCc3nc(NCCc4ccccc4)sc3C1=CC[C@@H]1[C@@H]2CC[C@]2(C)C(=O)CC[C@@H]12 [Compound 1] | 3.63 µM | 3.01 µM | 2.67 µM | 2.18 µM | 3.37 µM | 1.7 µM | 17 µM | 4.57 µM | 4.92 µM | > 100 µM | >100 µM | > 100 µM | >100 µM | > 100 µM | 10.6 µM | > 100 µM | 6.82 µM | > 100 µM | 18.9 µM | 5.91 µM | TGI (total growth inhibition) (LOX IMVI): 3.17 µM; LC50 (50% lethal concentration) (SK-MEL-2): > 100 µM; TGI (total growth inhibition) (SK-MEL-2): >100 µM; CC50 (SK-MEL-5): > 100 µM; TGI (total growth inhibition) (SK-MEL-5): 52.7 µM; CC50 (UACC-257): > 100 µM; TGI (total growth inhibition) (UACC-257): 79.8 µM; solubility in the growth media [2]: low solubility
4 | C[C@]12CCc3nc(-c4cccc(F)c4)sc3C1=CC[C@@H]1[C@@H]2CC[C@]2(C)C(=O)CC[C@@H]12 [Compound 8] | 6.62 µM | 2.97 µM | 1.9 µM | 1.8 µM | 1.53 µM | 1.74 µM | 2.74 µM | 4.05 µM | 6.12 µM | > 100 µM | >100 µM | > 100 µM | >100 µM | 37.3 µM | 5.70 µM | 9.48 µM | 4.13 µM | > 100 µM | 4.07 µM | 6.47 µM | TGI (total growth inhibition) (LOX IMVI): 3.36 µM; LC50 (50% lethal concentration) (SK-MEL-2): > 100 µM; TGI (total growth inhibition) (SK-MEL-2): 10.7 µM; CC50 (SK-MEL-5): 65.1 µM; TGI (total growth inhibition) (SK-MEL-5): 16.9 µM; CC50 (UACC-257): > 100 µM; TGI (total growth inhibition) (UACC-257): >100 µM; solubility in the growth media [2]: low solubility
